Article PMC10065799, “High-throughput profiling of sequence recognition by tyrosine kinases and SH2 domains using bacterial peptide display” (eLife, 2023)

Experiments:
Test in all cases: pTyr-Var library bacterial peptide display kinase screen (enrichment scores)
[1] = biological target: T1, c-Abl kinase domain (Mus musculus, UniProt P00520); type: biochemical;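 further: log2 fold change in enrichment of variant over reference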
T1 sequence (P00520 242-493 limits assumed): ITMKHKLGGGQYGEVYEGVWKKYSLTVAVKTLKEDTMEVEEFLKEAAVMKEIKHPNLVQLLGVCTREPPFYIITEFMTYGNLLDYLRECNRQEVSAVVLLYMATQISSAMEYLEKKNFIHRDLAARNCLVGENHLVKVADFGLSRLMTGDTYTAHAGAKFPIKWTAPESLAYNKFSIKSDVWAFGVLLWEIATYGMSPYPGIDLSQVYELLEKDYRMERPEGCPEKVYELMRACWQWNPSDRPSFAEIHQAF

[2] = test system: Fer kinase domain; type: biochemical, mouse; details: sheet "Fer"; value of the variant peptide against its reference peptide in the pTyr-Var library screen with Fer;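 further: log2 fold change in enrichment of variant over reference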
[3] = biological target: c-Src kinase domain (Homo sapiens, UniProt P12931); type: biochemical; details: sheet "Src";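 further: log2 fold change in enrichment of variant over reference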
[4] = test system: EPHB1 kinase domain; type: biochemical, human; details: for Screen (variant relative to reference peptide, measured in the pTyr-Var library screen): sheet "EPHB1", variant seq vs reference seq, bacterial peptide display enrichment; for Screen: sheet EPHB1, effect of the variant peptide relative to its reference peptide in the pTyr-Var library screen (enrichment scores)
[5] = test system: EPHB2 kinase domain; type: biochemical, human; details: sheet EPHB2; effect of variant peptide relative to its reference peptide in the pTyr-Var library screen (enrichment scores);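 further: log2 fold change in enrichment of variant over reference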
[6] = fig5-data2, sheet "Abl", Screen for the variant/reference peptide pair, pTyr-Var library
[7] = variant peptide versus its reference peptide in the pTyr-Var library screen
[8] = effect of the variant peptide relative to its reference peptide in the pTyr-Var library screen
[9] = sheet "Abl", effect of variant peptide relative to its reference peptide in pTyr-Var library screen (enrichment)

## VCHELYNAIRD [PBRM1_Y54_T56A]
[1]; [6]
  Screen: -0.5103

## DTLLEYLENPK [CYCS_Y68_M66L]
[1]; [6]
  Screen: -1.313

## MSSLFYANALF [HOXB7_Y6_T9A_YF]
[2]
  Screen: -0.9977
[1]; [6]
  Screen: 1.131

## PRNLIYFGEHP [TRPV6_Y201_C197R]
[3]; [7]
  Screen: -3.508

## KLPDAYEPLIL [G6PD_Y437_R439P]
[2]
  Screen: 1.978

## FRTGHYLCNAC [GATA1_Y223_D218Y_YF]
[1]; [6]
  Screen: 1.235

## SNKLTYGTVVF [ACOX1_Y275_M278V]
[3]; [8]
  Screen: 0.3111

## FDNSVYQKTTE [LDLR_Y828_P826S]
[1]; [6]
  Screen: 1.184

## LGNIVYSSLCG [BCOR_Y90_P85L]
[2]
  Screen: 0.7069
[3]; [8]
  Screen: 0.02175

## PLDGEYFTLQV [TP53_Y327_I332V]
[4]
  Screen (variant relative to reference peptide, measured in the pTyr-Var library screen): -0.1216
[3]; [7]
  Screen: -0.8668

## LNPLFYSLRNK [OR5R1_Y290_I289F]
[4]
  Screen: -2.165
[3]; [7]
  Screen: -4.245

## TLLPDYEDEEE [ZNF830_Y159_S154T]
[1]; [9]
  Screen: 2.994

## RRNEIYEIKVD [LGR5_Y387_H383R]
[3]; [8]
  Screen: -0.9028

## DNLSNYVFQGQ [GRIN2A_Y978_N976S]
[4]
  Screen: 0.2649

## TDHLQYFDSNK [ARAP1_Y359_R358Q]
[1]; [6]
  Screen: 1.336

## VFFDLYGGEKF [PTPN11_Y66_D61V_YF]
[3]; [7]
  Screen: -0.4607

## KGNMFYENSFA [EGFR_Y113_R108K_YF]
[2]
  Screen: -0.4996

## MKGEFYRFLAE [YWHAG_Y131_D129E_YF]
[1]; [9]
  Screen: 2.42

## LITTLYSGFLG [KCNQ1_Y267_I268S]
[3]; [8]
  Screen: 0.982

## PNKAVYTKMMT [G6PD_Y401_E398K]
[2]
  Screen: -3.207
[3]; [8]
  Screen: -2.964

## VLALWYFFLTN [ZDHHC23_Y127_H132N_YF]
[1]; [9]
  Screen: -3.327

## PFTDPYFDFEI [ZC3H18_Y371_A368T_YF]
[3]; [7]
  Screen: 0.4384

## ESMQSYDLDFP [UNC13B_Y243_D238E_YF]
[1]; [9]
  Screen: 0.2086

## KLADIYQAELR [GFAP_Y116_V115I]
[3]; [8]
  Screen: 1.355

## SDPIIYTLENV [ADGRE1_Y534_I539V]
[2]
  Screen: -0.559
[3]; [8]
  Screen: -0.05563

## EDKFMYSEFPQ [PTEN_Y240_F241S]
[3]; [7]
  Screen: 0.2043

## ADRLEYSRTGL [MMUT_Y287_G284R]
[5]
  Screen: -0.9943

## SHSMRYFSTAV [HLA-C_Y31_D33S]
[1]; [6]
  Screen: 0.4242

## WCSNDYLGMSQ [ALAS2_Y199_R204Q]
[4]
  Screen: 0.6712

## RNLLIYTEFGK [HGD_Y166_G161R]
[4]
  Screen: 0.6934
[3]; [8]
  Screen: -0.2684

## MSRDVYSTDCF [NTRK2_Y702_Y706C_YF]
[3]; [7]
  Screen: -0.1963

## LESETYRRLLD [KRT12_Y429_I426S]
[1]; [6]
  Screen: -1.592

## RRIHSYRGRLW [VHL_Y112_H115R]
[4]
  Screen (variant relative to reference peptide, measured in the pTyr-Var library screen): -0.8094
[3]; [7]
  Screen: -2.396

## GNLLIYTKFGK [HGD_Y166_E168K]
[4]
  Screen: -0.9666
[3]; [8]
  Screen: -1.556
[1]; [6]
  Screen: 0.592

## ARVANYHRDGP [CAT_Y386_Q387H]
[1]; [6]
  Screen: 0.869

## NDQANYLLNTD [ADA_Y290_S291L]
[1]; [6]
  Screen: -1.65

## KNSSIYVVANI [VNN1_Y134_N131S]
[1]; [9]
  Screen: 4.539

## GVLDIYGFDIL [MYO1A_Y382_E385D]
[3]; [7]
  Screen: 0.6089

## NSFKFYMSDDI [ATRX_Y204_C200S_YF]
[1]; [6]
  Screen: 1.883

## GRTGHYLCNAC [GATA1_Y223_D218G]
[1]; [6]
  Screen: 0.2005

## KPGLIYNKVNP [SPRED3_Y72_V71I]
[1]; [9]
  Screen: -0.1763

## GHLFAYNWISI [BEST1_Y227_D228N_YF]
[2]
  Screen: -1.638

## APAHKYHGGGG [HBD_Y146_L142P]
[1]; [6]
  Screen: 0.5925

## LNPLVYTLRNA [OR4C12_Y285_V283L]
[3]; [7]
  Screen: 0.901

## PMQMPYDSRWE [PDGFRA_Y582_L580M]
[1]; [6]
  Screen: 0.7733

## VHKKGYNKLNQ [ZNF676_Y98_E96K]
[1]; [9]
  Screen: 1.586

## SLMNQYVNKEF [RAB7A_Y28_K32E]
[1]; [6]
  Screen: 1.901

## SSQTIYQRVEG [TFR2_Y23_V22I]
[4]
  Screen (variant relative to reference peptide, measured in the pTyr-Var library screen): 1.306
[3]; [7]
  Screen: 1.445

## KACKHYLTKRT [ZBTB5_Y118_T121K]
[1]; [9]
  Screen: -3.546

## GRSTFYWPSPR [GAGE12J_Y10_R13S_YF]
[1]; [6]
  Screen: -1.338

## DDEVFYSPLSL [OTC_Y317_R320L]
[2]
  Screen: 2.858
[3]; [7]
  Screen: 2.664
